The structures appear in SMILES notation. Read-outs that look alike come from different tables or passages of the source.

This is an account of results in PMC4254624 (Biochemical and biophysical research communications, 2014).

The target of test [1] is T1, EcSecA intrinsic ATPase (Escherichia coli, UniProt P10408). The experiment in a line: Intrinsic ATPase activity assay of EcSecA. It is filed as biochemical. The conditions noted are these: for Ki: read-out: apparent Ki, intrinsic ATPase; for Km / Vmax: Intrinsic.
The target in the next test is EcSecA membrane ATPase (Escherichia coli, UniProt P10408). The experiment in a line: Membrane ATPase activity assay of EcSecA with urea-washed BA13 membrane. Type of test: biochemical.
For a further test, the target named is PaSecA (Pseudomonas aeruginosa, UniProt Q9LCT3). In words: SecA ion channel activity in Xenopus oocytes. It is filed as cell-based, P. aeruginosa. The conditions noted are these: for IC50: read-out: IC50 inhibition of SecA channel activity in oocytes, PaSecA.
Another test deals with EcSecA (Escherichia coli, UniProt P10408). The experiment in a line: SecA ion channel activity in Xenopus oocytes. It is filed as cell-based. Particulars: for IC50: read-out: IC50 inhibition of SecA channel activity in oocytes, EcSecA.
Test [2] concerns the target EcSecA translocation ATPase (Escherichia coli, UniProt P10408). The experiment in a line: Translocation ATPase activity assay of EcSecA with BA13 membrane and proOmpA. The conditions noted are these: for Km / Vmax: Translocation. It is filed as biochemical.
In the next test the target is BsSecA (Bacillus subtilis, UniProt P28366). The experiment in a line: SecA ion channel activity in Xenopus oocytes. Type of test: cell-based. Particulars: for IC50: read-out: IC50 inhibition of SecA channel activity in oocytes, BsSecA.
A further test has as its target BsSecA intrinsic ATPase (Bacillus subtilis, UniProt P28366). The experiment in a line: Intrinsic ATPase activity assay of BsSecA. Type of test: biochemical.
For test [3], the target named is T1, EcSecA intrinsic ATPase. Particulars: cited from earlier work.
Setting [4] is: high ATP concentrations (above 1 mM), non-competitive.
[5] abbreviates: low ATP concentrations (below 0.6 mM), competitive.

PaSecA, sequence (Q9LCT3 whole entry): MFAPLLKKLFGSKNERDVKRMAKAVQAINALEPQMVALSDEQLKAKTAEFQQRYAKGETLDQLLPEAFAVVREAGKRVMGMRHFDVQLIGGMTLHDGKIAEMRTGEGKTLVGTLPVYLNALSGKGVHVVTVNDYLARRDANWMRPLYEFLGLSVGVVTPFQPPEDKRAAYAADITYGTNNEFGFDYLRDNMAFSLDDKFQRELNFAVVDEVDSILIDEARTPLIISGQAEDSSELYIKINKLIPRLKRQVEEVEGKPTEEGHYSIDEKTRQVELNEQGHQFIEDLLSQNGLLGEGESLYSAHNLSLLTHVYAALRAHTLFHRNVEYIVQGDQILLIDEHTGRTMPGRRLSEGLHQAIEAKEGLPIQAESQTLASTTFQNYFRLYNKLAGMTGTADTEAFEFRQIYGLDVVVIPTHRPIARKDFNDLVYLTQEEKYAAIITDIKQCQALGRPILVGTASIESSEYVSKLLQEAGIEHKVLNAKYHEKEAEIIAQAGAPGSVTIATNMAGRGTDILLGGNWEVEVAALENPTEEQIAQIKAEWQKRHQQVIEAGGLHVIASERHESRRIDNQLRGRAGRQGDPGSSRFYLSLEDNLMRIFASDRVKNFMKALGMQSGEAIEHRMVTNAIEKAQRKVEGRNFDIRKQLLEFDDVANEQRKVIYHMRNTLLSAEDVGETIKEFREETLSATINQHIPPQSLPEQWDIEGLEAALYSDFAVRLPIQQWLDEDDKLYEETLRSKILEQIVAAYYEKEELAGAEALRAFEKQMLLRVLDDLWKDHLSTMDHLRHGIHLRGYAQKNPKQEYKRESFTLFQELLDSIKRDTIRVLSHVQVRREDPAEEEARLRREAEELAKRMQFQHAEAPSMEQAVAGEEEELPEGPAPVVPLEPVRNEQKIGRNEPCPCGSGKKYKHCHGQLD
EcSecA translocation ATPase, sequence (P10408 whole entry): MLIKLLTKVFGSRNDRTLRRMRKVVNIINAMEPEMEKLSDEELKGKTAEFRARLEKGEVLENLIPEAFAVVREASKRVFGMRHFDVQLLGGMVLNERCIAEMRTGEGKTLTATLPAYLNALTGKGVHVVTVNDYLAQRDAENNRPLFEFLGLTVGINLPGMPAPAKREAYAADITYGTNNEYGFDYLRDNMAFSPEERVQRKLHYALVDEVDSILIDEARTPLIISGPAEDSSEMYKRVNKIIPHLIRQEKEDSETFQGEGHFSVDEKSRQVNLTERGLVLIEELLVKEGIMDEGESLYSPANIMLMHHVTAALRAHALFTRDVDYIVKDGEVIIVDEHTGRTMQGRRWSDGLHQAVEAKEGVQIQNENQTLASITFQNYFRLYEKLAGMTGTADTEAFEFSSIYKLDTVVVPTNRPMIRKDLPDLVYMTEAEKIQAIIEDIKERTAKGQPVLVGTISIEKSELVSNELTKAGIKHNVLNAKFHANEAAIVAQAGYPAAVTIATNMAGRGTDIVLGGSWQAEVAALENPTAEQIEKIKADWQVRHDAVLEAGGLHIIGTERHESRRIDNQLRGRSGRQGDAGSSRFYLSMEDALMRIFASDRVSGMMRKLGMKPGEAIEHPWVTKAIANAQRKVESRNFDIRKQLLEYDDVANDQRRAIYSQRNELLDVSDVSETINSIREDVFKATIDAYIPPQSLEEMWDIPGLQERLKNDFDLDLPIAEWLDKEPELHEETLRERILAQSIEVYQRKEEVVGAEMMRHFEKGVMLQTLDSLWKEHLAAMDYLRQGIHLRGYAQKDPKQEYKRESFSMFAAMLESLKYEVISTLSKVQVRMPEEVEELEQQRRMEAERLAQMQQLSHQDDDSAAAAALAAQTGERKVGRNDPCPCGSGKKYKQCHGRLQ
EcSecA membrane ATPase, sequence (P10408 whole entry): as above
T1 sequence (P10408 whole entry): as above
EcSecA, sequence (P10408 whole entry): as above
BsSecA, sequence (P28366 whole entry): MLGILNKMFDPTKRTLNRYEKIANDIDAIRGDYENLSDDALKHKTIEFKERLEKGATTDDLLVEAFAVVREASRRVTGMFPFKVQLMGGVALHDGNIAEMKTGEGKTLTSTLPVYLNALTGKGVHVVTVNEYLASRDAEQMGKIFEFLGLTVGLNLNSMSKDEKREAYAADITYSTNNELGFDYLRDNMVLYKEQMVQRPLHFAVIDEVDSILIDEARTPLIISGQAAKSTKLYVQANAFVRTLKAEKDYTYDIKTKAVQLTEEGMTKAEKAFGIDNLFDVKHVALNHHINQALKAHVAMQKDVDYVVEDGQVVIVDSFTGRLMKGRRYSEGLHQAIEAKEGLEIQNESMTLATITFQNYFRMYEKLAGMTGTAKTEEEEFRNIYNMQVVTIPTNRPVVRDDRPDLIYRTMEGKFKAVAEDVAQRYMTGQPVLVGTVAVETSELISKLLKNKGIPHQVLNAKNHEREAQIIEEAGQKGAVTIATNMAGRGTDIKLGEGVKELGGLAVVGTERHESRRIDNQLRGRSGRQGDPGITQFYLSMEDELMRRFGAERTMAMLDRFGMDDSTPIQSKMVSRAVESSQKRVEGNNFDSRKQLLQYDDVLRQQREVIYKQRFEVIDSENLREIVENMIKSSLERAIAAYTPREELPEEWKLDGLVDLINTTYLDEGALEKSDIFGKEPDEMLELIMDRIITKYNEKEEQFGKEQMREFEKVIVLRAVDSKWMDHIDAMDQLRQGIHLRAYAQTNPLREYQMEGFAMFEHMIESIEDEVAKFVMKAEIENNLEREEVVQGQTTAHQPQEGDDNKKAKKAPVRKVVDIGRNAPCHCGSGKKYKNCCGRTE
BsSecA intrinsic ATPase, sequence (P28366 whole entry): as above

In the case of `O.O=C([O-])c1ccccc1-c1c2cc(I)c(=O)c(I)c-2oc2c(I)c([O-])c(I)cc12.[Na+].[Na+]` [EB, Erythrocin B], the figures for the “mechanism of inhibition of intrinsic ATPase versus ATP” value at EcSecA intrinsic ATPase [1] (high ATP concentrations) and on EcSecA intrinsic ATPase [1] (low ATP concentrations) were “non-competitively” and “competitively”, respectively. In addition, the Ki on EcSecA intrinsic ATPase [1] (setting [4]) worked out at 34.3 ± 8.08 µM; at EcSecA intrinsic ATPase [1] (setting [5]), 4.06 ± 0.32 µM.
For `O=C1OC2(c3cc(I)c(O)c(I)c3Oc3c2cc(I)c(O)c3I)c2c(Cl)c(Cl)c(Cl)c(Cl)c21` [RB, Rose Bengal], at EcSecA membrane ATPase, the “mechanism of inhibition of membrane ATPase” value is “mixed-mechanism”. Besides, the Vmax was determined as 13.61 molePi·moleSecA^−1min^−1 at EcSecA membrane ATPase (Membrane, RB 2 μM); 8.18 molePi·moleSecA^−1min^−1 at EcSecA membrane ATPase (Membrane, RB 4 μM); 23.42 molePi·moleSecA^−1min^−1 in test [2] (RB 0.75 μM); 15.06 molePi·moleSecA^−1min^−1 in test [2] (RB 1 μM); 6.08 molePi·moleSecA^−1min^−1 on EcSecA intrinsic ATPase [1] (High [ATP], RB 20 μM); 3.99 molePi·moleSecA^−1min^−1 at EcSecA intrinsic ATPase [1] (High [ATP], RB 40 μM). In addition, the Vmax came out at 3.07±0.16 molePi·moleSecA^−1min^−1 at EcSecA intrinsic ATPase [1] (Low [ATP], RB 20 μM) and 3.07±0.16 molePi·moleSecA^−1min^−1 on EcSecA intrinsic ATPase [1] (Low [ATP], RB 40 μM). In addition, the Km (commonly the concentration of substrate that gives half-maximal velocity) at EcSecA membrane ATPase (Membrane, RB 4 μM) is 310 µM; in test [2] (RB 0.75 μM) it was 180 µM; in test [2] (RB 1 μM), 180 µM; at EcSecA intrinsic ATPase [1] (High [ATP], RB 20 μM), 1680 µM; on EcSecA intrinsic ATPase [1] (High [ATP], RB 40 μM), 1680 µM; on EcSecA intrinsic ATPase [1] (Low [ATP], RB 20 μM), 250 µM. For the same compound, the Km at EcSecA intrinsic ATPase [1] (Low [ATP], RB 40 μM) was 460 µM. The Ki was 1.42 ± 0.22 µM at EcSecA membrane ATPase (read-out: average Ki, membrane ATPase, mixed-mechanism); 0.43 ± 0.02 µM in test [2] (read-out: Ki, translocation ATPase, non-competitive, broad range of ATP concentrations); 57.1 ± 3.37 µM at EcSecA intrinsic ATPase [1] (setting [4]); 22.4 ± 3.33 µM on EcSecA intrinsic ATPase [1] (setting [5]). Besides, the “mechanism of inhibition of liposome channel activity with ATP” value at PaSecA (PaSecA-liposomes in oocytes), on EcSecA (EcSecA-liposomes in oocytes) and at BsSecA (BsSecA-liposomes in oocytes) was “non-competitive inhibition” in each case. The IC50 (commonly the concentration that inhibits the measured activity by half) at PaSecA (BA13 memb) turned out to be 5.1 ± 0.2 µM; on PaSecA (L+SecYEG +SecDF•C) it was 2 ± 0.3 µM; on PaSecA (Lipo) it was 0.3 ± 0.2 µM; on PaSecA (RE-13 memb +SecYEG) it was 5.1 ± 0.2 µM; on PaSecA (RE-13 memb +SecYEG-DF•C) it was 5.1 ± 0.1 µM; on EcSecA (BA13 memb), 4.7 ± 0.1 µM. The IC50 on EcSecA (L+SecYEG +SecDF•C) is 3.8 ± 0.3 µM; at EcSecA (RE-13 memb +SecYEG-DF•C), 4.4 ± 0.1 µM; on BsSecA (BA13 memb), 5.8 ± 0.3 µM; on BsSecA (L+SecYEG +SecDF•C), 4.5 ± 0.2 µM; at BsSecA (RE-13 memb +SecYEG-DF•C), 5.2 ± 0.3 µM. For the same compound, on EcSecA (EcSecA-SecYEG-SecDF•YajC liposomes in oocytes), the “mechanism of inhibition of channel activity” value is “non-competitive inhibition pattern”. In addition, the “mechanism of inhibition of translocation ATPase” value in test [2] (broad range of ATP concentrations) is listed as “only non-competitively”. Also, at BsSecA intrinsic ATPase, the “mechanism of inhibition of intrinsic ATPase” value is “two-site inhibition depending on the concentration of ATP”. Moreover, the results for the “mechanism of inhibition of intrinsic ATPase versus ATP” value at EcSecA intrinsic ATPase [1] (high ATP concentrations) and on EcSecA intrinsic ATPase [1] (low ATP concentrations) were “non-competitive inhibitor” and “competitive inhibitor”, respectively.
As for `[N-]=[N+]=[N-].[Na+]` [azide, sodium azide], the “effect on SecA intrinsic ATPase activity” value on EcSecA intrinsic ATPase [3] is recorded as “does not affect”.
